Data reported in patent US9315490B2, “2,5-substituted pyrimidines” (Grünenthal GmbH, priority 2014, dated 2016).

What follows are molecules tested against T1, human PDE4B1 (Homo sapiens, UniProt Q07343) (assay: cAMP HTRF assay to determine the activity of hPDE4B1). Conditions: inhibition of PDE4B at a test concentration of 1 μM.
T1 construct: host or cells: Sf9 cells
Type: biochemical
Method: Biological Testing cAMP HTRF® Assay to Determine the Activity of hPDE4B1
The inhibiting effect of the compounds on the enzyme activity of human PDE4B1 was measured by the quantification of 5′-adenosine monophosphate (5′-AMP), which is formed from 3′,5′-cyclic adenosine monophosphate (cAMP). Human recombinant enzyme, expressed in Sf9 cells, and the HTRF (homogeneous time-resolved fluorescence) detection method were used in the assay.
The test compound or water (control) was mixed with the human recombinant PDE4B1 enzyme (4.8 U) in a buffer consisting of 44.4 mM tris-HCl, 5.28 mM MgCl2, 2.64 mM DTT and 0.044% Tween 20 (pH 7.8). After adding the cAMP enzyme substrate (final concentration 40 nM), the mixture was incubated for 30 minutes at room temperature. Then a fluorescence acceptor (Dye2 marked with cAMP), a fluorescence donor (anti-cAMP antibody marked with a europium cryptate) and the non-specific phosphodiesterase inhibitor IBMX (3-isobutyl-1-methylxanthine; final concentration 1 mM) were added. After 60 minutes the fluorescence transfer, which correlates with the amount of remaining cAMP, was measured with a microplate reader (Rubystar, BMG) at λex=337 nm, λem=620 nm and λem=665 nm. The enzyme activity was calculated from the quotient formed from the measured signal at 665 nm and that at 620 nm. The result was expressed as the percentage inhibition of enzyme activity of the control (without PDE4 inhibitor). The enzyme was omitted for measurement of the basal control. IC50 values (IC50=concentration causing a half-maximal inhibition of control specific activity) were derived from dose response measurements with eight different concentrations (n=2; N=1-3).
Literature: N. Saldou et al., Comparison of recombinant human PDE4 isoforms: interaction with substrate and inhibitors, Cell. Signal. Vol. 10, No. 6, 427-440, 1998

T1 sequence (Q07343 whole entry): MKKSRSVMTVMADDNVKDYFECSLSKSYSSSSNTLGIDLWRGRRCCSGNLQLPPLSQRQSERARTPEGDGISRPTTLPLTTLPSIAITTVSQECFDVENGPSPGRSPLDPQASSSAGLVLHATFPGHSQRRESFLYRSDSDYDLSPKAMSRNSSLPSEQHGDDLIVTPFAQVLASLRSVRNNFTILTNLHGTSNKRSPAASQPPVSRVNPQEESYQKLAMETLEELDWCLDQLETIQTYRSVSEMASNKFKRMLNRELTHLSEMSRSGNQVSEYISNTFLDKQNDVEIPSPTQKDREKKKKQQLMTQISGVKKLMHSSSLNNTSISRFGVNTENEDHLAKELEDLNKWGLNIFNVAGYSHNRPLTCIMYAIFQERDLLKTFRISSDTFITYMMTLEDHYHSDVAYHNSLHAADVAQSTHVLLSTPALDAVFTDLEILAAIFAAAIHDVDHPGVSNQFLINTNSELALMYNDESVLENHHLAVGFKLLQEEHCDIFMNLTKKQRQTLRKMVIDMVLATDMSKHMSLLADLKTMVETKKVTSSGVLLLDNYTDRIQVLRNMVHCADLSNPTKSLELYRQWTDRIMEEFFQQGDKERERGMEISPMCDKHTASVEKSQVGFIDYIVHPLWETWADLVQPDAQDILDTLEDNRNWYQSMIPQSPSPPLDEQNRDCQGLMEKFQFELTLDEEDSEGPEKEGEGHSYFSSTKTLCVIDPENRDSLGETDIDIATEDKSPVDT

First: C[S+]([O-])c1cn(-c2ncc(-c3ccccc3F)cn2)c2cc(C(=O)N3CCOCC3)ccc12 (stereo not drawn) [Example 1, (1-(5-(2-fluorophenyl)pyrimidin-2-yl)-3-(methylsulfinyl)-1H-indol-6-yl)(morpholino)methanone]
Second: C[S+]([O-])c1cn(-c2ncc(-c3cccc(F)c3F)cn2)c2cc(C(=O)N3CCOCC3)ccc12 (stereo not drawn) [Example 30, (1-(5-(2,3-Difluorophenyl)pyrimidin-2-yl)-3-(methylsulfinyl)-1H-indol-6-yl)(morpholino)methanone]
The inhibition at 1 µM of the first is lower: 104% for the first, 106% for the second.

Going from `C[S+]([O-])c1cn(-c2ncc(-c3ccc(C(N)=O)cc3F)cn2)c2cc(C(=O)N3CCNCC3)ccc12` (stereo not drawn) [Example 15, 3-Fluoro-4-(2-(3-(methylsulfinyl)-6-(piperazine-1-carbonyl)-1H-indol-1-yl)pyrimidin-5-yl)benzamide] to `C[S+]([O-])c1cn(-c2ncc(-c3cc(C(N)=O)ccc3F)cn2)c2cc(C(=O)N3CCOCC3)ccc12` (stereo not drawn) [Example 43, 4-Fluoro-3-(2-(3-(methylsulfinyl)-6-(morpholine-4-carbonyl)-1H-indol-1-yl)pyrimidin-5-yl)benzamide], the inhibition at 1 µM rises from 44% to 83%.

First: CS(=O)(=O)c1cn(-c2ncc(-c3ccccc3)cn2)c2cc(C(=O)N3CCNCC3)ccc12 [Example 21, (3-(Methylsulfonyl)-1-(5-phenylpyrimidin-2-yl)-1H-indol-6-yl)(piperazin-1-yl)methanone]
Second: C[S+]([O-])c1cn(-c2ncc(-c3cccc(S(C)(=O)=O)c3)cn2)c2cc(C(=O)N3CCOCC3)ccc12 (stereo not drawn) [Example 36, (3-(Methylsulfinyl)-1-(5-(3-(methylsulfonyl)phenyl)pyrimidin-2-yl)-1H-indol-6-yl)(morpholino)methanone]
The inhibition at 1 µM of the first is lower: 32% for the first, 90% for the second.

Compared with `CC(O)c1cn(-c2ncc(-c3ccccc3F)cn2)c2cc(C(=O)N3CCOCC3)ccc12` (stereo not drawn) [Example 28, (1-(5-(2-fluorophenyl)pyrimidin-2-yl)-3-(1-hydroxyethyl)-1H-indol-6-yl)(morpholino)methanone], `C[S+]([O-])c1cn(-c2ncc(-c3cc(O)ccc3F)cn2)c2cc(C(=O)N3CCOCC3)ccc12` (stereo not drawn) [Example 41, (1-(5-(2-Fluoro-5-hydroxyphenyl)pyrimidin-2-yl)-3-(methylsulfinyl)-1H-indol-6-yl)(morpholino)methanone] is higher in inhibition at 1 µM: 98% for the first, 100% for the second.

Compared with `C[S+]([O-])c1cn(-c2ncc(-c3ccc(C#N)cc3)cn2)c2cc(C(=O)N3CCOCC3)ccc12` (stereo not drawn) [Example 31, 4-(2-(3-(Methylsulfinyl)-6-(morpholine-4-carbonyl)-1H-indol-1-yl)pyrimidin-5-yl)benzonitrile], `C[S+]([O-])c1cn(-c2ncc(-c3ccc(F)cc3)cn2)c2cc(C(=O)N3CCOCC3)ccc12` (stereo not drawn) [Example 32, (1-(5-(4-Fluorophenyl)pyrimidin-2-yl)-3-(methylsulfinyl)-1H-indol-6-yl)(morpholino)methanone] is higher in inhibition at 1 µM: 75% for the first, 80% for the second.

Going from `COc1ccc(-c2cnc(-n3cc([S+](C)[O-])c4ccc(C(=O)N5CCOCC5)cc43)nc2)cc1` (stereo not drawn) [Example 33, (1-(5-(4-Methoxyphenyl)pyrimidin-2-yl)-3-(methylsulfinyl)-1H-indol-6-yl)(morpholino)methanone] to `Cc1ccc(-c2cnc(-n3cc([S+](C)[O-])c4ccc(C(=O)N5CCOCC5)cc43)nc2)cc1` (stereo not drawn) [Example 46, (3-(Methylsulfinyl)-1-(5-(p-tolyl)pyrimidin-2-yl)-1H-indol-6-yl)(morpholino)methanone], the inhibition at 1 µM rises from 88% to 102%.

Going from `C[S+]([O-])c1cn(-c2ncc(-c3cccc(F)c3)cn2)c2cc(C(=O)N3CCOCC3)ccc12` (stereo not drawn) [Example 34, (1-(5-(3-Fluorophenyl)pyrimidin-2-yl)-3-(methylsulfinyl)-1H-indol-6-yl)(morpholino)methanone] to `Cc1cccc(-c2cnc(-n3cc([S+](C)[O-])c4ccc(C(=O)N5CCOCC5)cc43)nc2)c1` (stereo not drawn) [Example 37, (3-(Methylsulfinyl)-1-(5-(m-tolyl)pyrimidin-2-yl)-1H-indol-6-yl)(morpholino)methanone], the inhibition at 1 µM rises from 90% to 103%.

First: C[S+]([O-])c1cn(-c2ncc(-c3cccc(C(N)=O)c3)cn2)c2cc(C(=O)N3CCOCC3)ccc12 (stereo not drawn) [Example 35, 3-(2-(3-(Methylsulfinyl)-6-(morpholine-4-carbonyl)-1H-indol-1-yl)pyrimidin-5-yl)benzamide]
Second: C[S+]([O-])c1cn(-c2ncc(-c3ccc(C(N)=O)cc3)cn2)c2cc(C(=O)N3CCOCC3)ccc12 (stereo not drawn) [Example 42, 4-(2-(3-(Methylsulfinyl)-6-(morpholine-4-carbonyl)-1H-indol-1-yl)pyrimidin-5-yl)benzamide]
The inhibition at 1 µM of the first is lower: 67% for the first, 86% for the second.

First: COc1ccc(F)c(-c2cnc(-n3cc([S+](C)[O-])c4ccc(C(=O)N5CCOCC5)cc43)nc2)c1 (stereo not drawn) [Example 38, (1-(5-(2-Fluoro-5-methoxyphenyl)pyrimidin-2-yl)-3-(methylsulfinyl)-1H-indol-6-yl)(morpholino)methanone]
Second: COc1ccc(-c2cnc(-n3cc([S+](C)[O-])c4ccc(C(=O)N5CCOCC5)cc43)nc2)c(F)c1 (stereo not drawn) [Example 39, (1-(5-(2-Fluoro-4-methoxyphenyl)pyrimidin-2-yl)-3-(methylsulfinyl)-1H-indol-6-yl)(morpholino)methanone]
The inhibition at 1 µM of the first is lower: 102% for the first, 105% for the second.

First: C[S+]([O-])c1cn(-c2ncc(-c3cccc(C#N)c3)cn2)c2cc(C(=O)N3CCOCC3)ccc12 (stereo not drawn) [Example 40, 3-(2-(3-(Methylsulfinyl)-6-(morpholine-4-carbonyl)-1H-indol-1-yl)pyrimidin-5-yl)benzonitrile]
Second: COc1cccc(-c2cnc(-n3cc([S+](C)[O-])c4ccc(C(=O)N5CCOCC5)cc43)nc2)c1 (stereo not drawn) [Example 45, (1-(5-(3-Methoxyphenyl)pyrimidin-2-yl)-3-(methylsulfinyl)-1H-indol-6-yl)(morpholino)methanone]
The inhibition at 1 µM of the first is lower: 93% for the first, 115% for the second.

For `C[S+]([O-])c1cn(-c2ncc(-c3c(F)cccc3F)cn2)c2cc(C(=O)N3CCOCC3)ccc12` (stereo not drawn) [Example 44, (1-(5-(2,6-Difluorophenyl)pyrimidin-2-yl)-3-(methylsulfinyl)-1H-indol-6-yl)(morpholino)methanone], the inhibition at 1 µM was 82%.

Same assay, conditions: inhibition of PDE4B at a test concentration of 1 μM, 1 µM

Compared with `CC1CC(C)CN(C(=O)c2ccc3c([S+](C)[O-])cn(-c4ncc(-c5ccccc5F)cn4)c3c2)C1` (single isomer, unassigned) [Example 373, (3,5-Dimethylpiperidin-1-yl)(1-(5-(2-fluorophenyl)pyrimidin-2-yl)-3-(methylsulfinyl)-1H-indol-6-yl)methanone], `CC1CN(C(=O)c2ccc3c([S+](C)[O-])cn(-c4ncc(-c5ccccc5F)cn4)c3c2)CC(C)O1` (single isomer, unassigned) [Example 377, (2,6-Dimethylmorpholino)(1-(5-(2-fluorophenyl)pyrimidin-2-yl)-3-(methylsulfinyl)-1H-indol-6-yl)methanone] is higher in Inhibition in %: 36% for the first, 70% for the second.

`CC1CN(C(=O)c2ccc3c([S+](C)[O-])cn(-c4ncc(-c5ccccc5F)cn4)c3c2)CC(C)O1` (single isomer, unassigned) [Example 378, (2,6-Dimethylmorpholino)(1-(5-(2-fluorophenyl)pyrimidin-2-yl)-3-(methylsulfinyl)-1H-indol-6-yl)methanone] showed an Inhibition in % of 31%.
